Assay in all cases: growth of human tumour cells (NCI), 48 h
For assay [1], the system named is IGROV1 ovarian.
The subject of assay [2] is K-562 leukemia.
The test system of assay [3] is UO-31 renal.
Assay [4] has as its system HT29 colon.
Assay [5] deals with U251 CNS.
Assay [6] has as its system SF-295 CNS.
In assay [7] the test system is KM12 colon.
Assay [8] deals with SK-OV-3 ovarian.
Assay [9] deals with CAKI-1 renal.
In assay [10] the test system is LOX IMVI melanoma.

Structures are written as SMILES. Values joined by “and” are separate entries in the source; they are usually repeats but may differ in a detail not shown here. Equal entries are not always repeated.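 How tested: cells in 96-well plates exposed to compound for 48 hours at five concentrations. GI50 marks 50% less growth. TGI: total growth inhibition.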

In the case of `O=C1OCC2=C1C(c1cccc(F)c1)c1cc3c(cc1N2CCO)OCCO3` (stereo not given), the GI50 was 0.333 µM in assay [1]; 0.122 µM in assay [2]; 0.276 µM in assay [3]; 0.178 µM in assay [4]; 0.221 µM in assay [5]; 0.134 µM in assay [6]. In addition, the GI50 in assay [7] is 0.172 µM; in assay [8], 0.26 µM; in assay [9], 0.144 µM; in assay [10], 0.265 µM. Besides, the TGI in assay [1], in assay [2], in assay [3], in assay [4], in [5] and in assay [6] was over 50 µM throughout. The TGI in assay [7], in [8], in assay [9] and in [10] was over 50 µM each time.

On to `O=C1C2C(C(=O)[N]1[Hg][c]1ccccc1)C1(Cl)C(Cl)=C(Cl)C2(Cl)C1(Cl)Cl` (stereo not given), for which the GI50 was 1.2 µM in assay [1]; 1.36 µM in assay [2]; 1.73 µM in [3]; 1.81 µM in assay [4]; 1.21 µM in assay [5]; 12.4 µM in assay [6]. The GI50 was 8.7 µM in assay [7], 1.87 µM in assay [8], 1.67 µM in assay [9] and 1.02 µM in [10]. The TGI in assay [1] was 3.63 µM; in [2] it was 11.4 µM; in assay [3] it was 3.57 µM; in assay [4], 4.25 µM; in assay [5], 2.49 µM; in assay [6], 36 µM. In addition, the TGI is 21.5 µM in assay [7], 5.17 µM in [8], 4.99 µM in assay [9] and 2.39 µM in assay [10].

Turning to `CC[C@](O)(C(=O)O)c1cc2n(c(=O)c1CO)Cc1cc3ccccc3nc1-2`, the GI50 in [1] is 0.0299 µM and 0.197 µM; in assay [2] it was 0.0383 µM and 0.137 µM and 0.0357 µM; in assay [3], 0.0189 µM; in assay [4], 0.0354 µM and 0.11 µM; in assay [5], < 0.0025 µM and 0.0107 µM; in assay [6], 0.0029 µM and < 0.0134 µM. Also, the GI50 in [7] is 0.132 µM and 0.228 µM and 0.54 µM; in assay [8], 0.0283 µM and 0.0176 µM; in assay [9], under 0.0025 µM; in assay [10], 0.00507 µM and 0.0264 µM. Moreover, the TGI in assay [2] is 12.9 µM and 88 µM; in assay [3], 0.161 µM and 0.167 µM; in assay [5], 0.0386 µM and 0.164 µM and 0.0615 µM; in assay [6], 0.101 µM and 0.0956 µM and 0.107 µM; in assay [10], 0.307 µM and 0.686 µM and 0.652 µM.

Take `Nc1c(C(=O)Nc2cccc3ccccc23)sc2nc3c(cc12)CCCC3`: the GI50 is 2.34 µM in [1]; 0.349 µM in assay [2]; 3.47 µM in assay [3]; 1.18 µM in assay [4]; 0.781 µM in assay [5]; 0.621 µM in assay [6]. In addition, the GI50 in [7] is 0.675 µM; in assay [8] it was 1.54 µM; in [9], 5.9 µM; in assay [10] it was 1.75 µM. Besides, the TGI in assay [1], in [2], in assay [3], in assay [4], in assay [5] and in [6] was over 100 µM throughout. Besides, the TGI in [7], in [8], in assay [9] and in [10] was over 100 µM throughout.

Take `Cc1sc2nc(-c3ccccn3)c(/C=N/N=C(N)N)n2c1C`: the GI50 in [1] is 25.6 µM; in assay [2] it was over 51.5 µM; in assay [3], 8.94 µM; in [4], 5.68 µM; in assay [5] it was 9.3 µM; in [6], 8.77 µM. Also, the GI50 is 7.85 µM in [7], 9.14 µM in assay [8], 9.11 µM in [9] and 4.01 µM in assay [10]. For the same compound, the TGI in [1] was over 58.3 µM; in assay [2], over 100 µM; in assay [3], 20.9 µM; in [4], over 17.4 µM; in assay [5], 21 µM; in [6], 16.9 µM. The TGI in [7] was 15.6 µM; in assay [8], 20.1 µM; in [9], 18.3 µM; in assay [10], 8.26 µM.

As for `O=C(Cc1ccc(/C=C/C(=O)c2ncc[nH]2)cc1)Nc1ccc(Br)cc1`, the GI50 is 2.37 µM in assay [1]; 0.745 µM in assay [2]; 1.79 µM in assay [3]; 0.726 µM in [4]; 0.704 µM in assay [5]; 2.09 µM in assay [6]. The GI50 in assay [7] is 0.864 µM; in assay [8], 8.2 µM; in assay [9] it was 2.92 µM; in [10] it was 0.889 µM. The TGI in assay [1] was 7.22 µM; in [2], over 16.7 µM; in [3], 3.86 µM; in [4], 3.71 µM; in [5] it was 2.56 µM; in assay [6], 6.19 µM. Further, the TGI in [7] was 3.13 µM; in assay [8], over 16.7 µM; in assay [9] it was 8.48 µM; in assay [10], 3.12 µM.

Turning to `N#Cc1cc2cc3c4c(c2oc1=O)CCCN4CCC3`, the TGI in [1], in assay [2], in [3], in assay [4], in assay [5] and in assay [6] was over 100 µM each time. The TGI in assay [7], in assay [8], in assay [9] and in assay [10] was over 100 µM in each case.

Regarding `COc1cc(Nc2ncc3c(n2)-c2ccc(Cl)cc2C(c2c(F)cccc2OC)=NC3)ccc1C(=O)O`, the GI50 in assay [1] is 2.19 µM; in [2] it was 5.24 µM; in assay [3], 2.57 µM; in assay [4], 2.24 µM; in assay [5] it was 2.74 µM; in assay [6] it was 0.0719 µM. Besides, the GI50 in [7] is 0.26 µM; in [8], 10.6 µM; in assay [9], 1.66 µM; in [10], 0.91 µM. The TGI in assay [1] is 19.3 µM; in assay [2], over 100 µM; in [3], 21.4 µM; in [4], 23.8 µM; in assay [5] it was 33.3 µM; in [6], over 64.1 µM. The TGI in [7] is over 92.9 µM; in [8], 44 µM; in [9] it was 29.3 µM; in [10], 21.3 µM.

As for `COc1cc(C2[C@H]3C(=O)N(c4ccc(Cc5ccc(N6C(=O)[C@@H]7ON(c8ccccc8)C(c8cc(OC)c(OC)c(OC)c8)[C@@H]7C6=O)cc5)cc4)C(=O)[C@H]3ON2c2ccccc2)cc(OC)c1OC` (stereo not given in full), the TGI in [1], in assay [2], in assay [3], in [4], in assay [5] and in assay [6] was over 100 µM throughout. Further, the TGI in [7], in assay [8], in assay [9] and in assay [10] was over 100 µM throughout.

With `O=S(=O)(NC(=S)Nc1ccccc1)c1ccc(N2N=C3c4ccccc4CC3C2c2ccc(Cl)cc2)cc1` (stereo not given), the GI50 in assay [1] was 20.2 µM; in assay [2], 16.4 µM; in [3], 19 µM; in assay [4], 41.6 µM; in assay [5] it was 19.7 µM; in [6], 35.5 µM. In addition, the GI50 in assay [7] was 19.4 µM; in [8] it was 40.7 µM; in assay [9] it was 26.1 µM; in assay [10] it was 19.5 µM. Also, the TGI is 49.3 µM in assay [1]; 42.1 µM in [2]; 38.1 µM in [3]; over 100 µM in [4]; 39.9 µM in [5]; over 100 µM in assay [6]. In addition, the TGI in [7] was 55.3 µM; in assay [8] it was over 100 µM; in [9] it was 91.4 µM; in [10], 39 µM.

For the compound `c1ccc(Cn2cc3c(c2)-c2oncc2CC3)cc1`, the GI50 was 1.27 µM in assay [1]; 0.387 µM in assay [2]; 4.23 µM in assay [3]; 0.398 µM in assay [4]; 0.552 µM in assay [5]; 0.818 µM in assay [6]. The GI50 in assay [7] was 0.521 µM; in [8], 0.767 µM; in [9] it was 1.97 µM; in [10], 1.66 µM. For the same compound, the TGI in [1] was over 100 µM; in assay [2] it was over 100 µM; in assay [3], 97.1 µM; in assay [4], 13.6 µM; in assay [5] it was 33 µM; in [6] it was over 20.6 µM. The TGI in assay [7] was 9.2 µM; in assay [8] it was 26.5 µM; in assay [9], over 76.3 µM; in assay [10], over 57.9 µM.

Turning to `COC(=O)c1[nH]nc(-c2ccccc2)c1N1CCCCC1`, the GI50 is 60.8 µM in assay [1]; 57.2 µM in [2]; 65.4 µM in [3]; 57.9 µM in [4]; 26.6 µM in [5]; 45.7 µM in assay [6]. Besides, the GI50 was 55.8 µM in assay [7], 36.4 µM in assay [8], 62.4 µM in assay [9] and 42 µM in [10]. Further, the TGI is over 100 µM in [1]; over 100 µM in [2]; over 100 µM in assay [3]; over 100 µM in assay [4]; 78.8 µM in assay [5]; over 100 µM in [6]. Also, the TGI was over 100 µM in assay [7], over 100 µM in assay [8], 87.8 µM in assay [9] and over 100 µM in [10].

For the origin of these results see PubChem BioAssay (NCI).
